According to patent US11420970B1 (NOVARTIS AG, priority 2019, dated 2022):
Like-named read-outs stand apart in the source and are kept apart here.

How the values were obtained:
[1] = test system: cellular H3K36me2 level in multiple myeloma cell line KMS11 (t(4;14)+); assay: H3K36me2 cellular FRET assay in KMS11-Par line; assay type: cell-based; conditions: FRET, read-out: H3K36me2 FRET in KMS11-Par
Protocol: H3K36Me2 Cellular FRET Assay in KMS11-Par Line
Fluorescence Resonance Energy Transfer (FRET) assay was used to test the ability of candidate compound to reduce cellular H3K36me2 level in multiple myeloma cell line KMS11 (t(4;14)+) (Horizon Discovery Ltd.).
Cells were treated with tested compounds at the desired concentration for 48 hours. […] Histone extract was incubated with Eu labeled anti-H3K36me2 antibody (abcam #ab ab9049) and d2 labeled anti-H3 antibody (abcam #ab1791) for 1 hour at room temperature. A Eu labeled anti-H3 antibody (CISBIO #64CUS000) was used for loading control. The abundancy of H3K36me2 or total H3 was measured by fluorescence signal on Perkin Elmer Envison machine.

NSD2 [1-1365] = NSD2 [1-1365] (Homo sapiens (Human), UniProt O96028); assay: LC-MS/MS-based NSD2 enzymatic assay (SAH production); assay type: biochemical; conditions: read-out: NSD2 IC50
How it was run: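 SAH formed was measured by LC-MS/MS using d4-SAH as internal standard and an SAH calibration curve. Compounds were preincubated 20 min with NSD2 [1-1365] and SAM; mouse-liver nucleosome then started a 90 min room-temperature reaction (8 nM enzyme, 1 μM SAM, 400 nM nucleosome final, pH 8.0), stopped with TFA.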

[2] = Homo sapiens, KMS-11, KMS11-Par line, cellular H3K36me2 level
[3] = NSD2 biochemical activity, class symbols

Chain of NSD2 [1-1365] (O96028 whole entry): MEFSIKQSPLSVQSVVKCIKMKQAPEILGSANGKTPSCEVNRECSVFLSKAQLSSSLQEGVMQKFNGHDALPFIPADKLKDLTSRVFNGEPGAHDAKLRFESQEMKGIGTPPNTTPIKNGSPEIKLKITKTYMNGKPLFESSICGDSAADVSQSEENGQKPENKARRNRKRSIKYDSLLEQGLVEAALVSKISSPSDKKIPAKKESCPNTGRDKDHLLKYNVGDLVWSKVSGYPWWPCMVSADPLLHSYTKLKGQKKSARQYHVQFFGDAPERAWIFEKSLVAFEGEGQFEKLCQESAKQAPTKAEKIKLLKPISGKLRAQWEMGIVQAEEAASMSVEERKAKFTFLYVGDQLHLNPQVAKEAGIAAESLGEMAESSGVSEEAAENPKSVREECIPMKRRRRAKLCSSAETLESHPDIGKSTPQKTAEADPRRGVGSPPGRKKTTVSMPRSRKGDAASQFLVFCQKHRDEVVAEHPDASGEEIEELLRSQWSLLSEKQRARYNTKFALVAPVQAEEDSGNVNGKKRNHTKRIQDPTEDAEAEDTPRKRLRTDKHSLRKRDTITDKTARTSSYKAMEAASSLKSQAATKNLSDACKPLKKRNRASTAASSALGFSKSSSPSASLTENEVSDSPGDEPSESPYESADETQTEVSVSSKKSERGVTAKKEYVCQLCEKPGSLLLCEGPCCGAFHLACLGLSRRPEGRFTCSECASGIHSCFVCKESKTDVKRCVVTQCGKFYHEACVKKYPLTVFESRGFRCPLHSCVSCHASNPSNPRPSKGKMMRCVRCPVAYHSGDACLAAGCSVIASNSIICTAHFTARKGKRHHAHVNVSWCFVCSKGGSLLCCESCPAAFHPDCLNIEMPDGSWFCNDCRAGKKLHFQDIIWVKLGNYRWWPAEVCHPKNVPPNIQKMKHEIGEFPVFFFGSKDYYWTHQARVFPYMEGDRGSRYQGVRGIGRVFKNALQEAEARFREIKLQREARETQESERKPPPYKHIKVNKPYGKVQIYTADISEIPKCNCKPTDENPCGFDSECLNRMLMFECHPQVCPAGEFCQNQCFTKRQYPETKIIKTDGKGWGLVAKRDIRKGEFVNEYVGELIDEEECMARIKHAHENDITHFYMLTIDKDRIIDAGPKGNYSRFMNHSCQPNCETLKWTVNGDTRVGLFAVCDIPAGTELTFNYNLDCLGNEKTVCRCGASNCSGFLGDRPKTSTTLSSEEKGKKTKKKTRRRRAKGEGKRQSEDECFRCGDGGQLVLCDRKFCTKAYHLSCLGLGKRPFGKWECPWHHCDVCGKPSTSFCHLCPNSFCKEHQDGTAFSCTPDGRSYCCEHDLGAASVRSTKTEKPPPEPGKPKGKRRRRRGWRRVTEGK

Row | IC50 [1, 2] | IC50 (NSD2 [1-1365]; [3]) | IC50 ([1]; Homo sapiens, KMS-11, KMS11-Par line) | IC50 (NSD2 [1-1365]) | IC50 ([1]; KMS11-Par line, cellular H3K36me2 level) | Structure (SMILES)
1 | 327 nM | 1 to 10 nM | – | – | – | Nc1ncnc2c1ncn2Cc1cc(-c2ccc(F)c(F)c2)ncc1N1CCC[C@](N)(Cc2nccs2)C1 [Example 53, (S)-9-((5-(3-amino-3-(thiazol-2-ylmethyl)piperidin-1-yl)-2-(3,4-difluorophenyl)pyridin-4-yl)methyl)-9H-purin-6-amine]
2 | 4250 nM | 10 to 1000 nM | – | – | – | CNC(=O)CC1(N)CCCN(c2cnc(-c3ccc(F)c(F)c3)cc2Cn2cnc3c(N)ncc(Cl)c32)C1 (centres unmarked) [Example 67, 2-(3-amino-1-(4-((4-amino-7-chloro-1H-imidazo[4,5-c]pyridin-1-yl)methyl)-6-(3,4-difluorophenyl)pyridin-3-yl)piperidin-3-yl)-N-methylacetamide]
3 | 4120 nM | 10 to 1000 nM | – | – | – | Nc1ncnc2c1ncn2Cc1cc(-c2cccc(F)c2)ncc1N1CCC[C@@H](N)C1 [Example 4, (R)-9-((5-(3-aminopiperidin-1-yl)-2-(3-fluorophenyl)pyridin-4-yl)methyl)-9H-purin-6-amine]
4 | 1030 nM | 1 to 10 nM | – | – | – | CC(C)OC[C@@]1(N)CCCN(c2cnc(-c3ccc(F)c(F)c3)cc2Cn2cnc3c(N)ncnc32)C1 [Example 34, (R)-9-((5-(3-amino-3-(isopropoxymethyl)piperidin-1-yl)-2-(3,4-difluorophenyl)pyridin-4-yl)methyl)-9H-purin-6-amine]
5 | 20700 nM | 10 to 1000 nM | – | – | – | N#Cc1ccc(-c2cc(Cn3cnc4c(N)ncnc43)c(N3CC[C@@H](F)[C@@H](N)C3)cn2)cc1F [Example 13, 4-(5-((3S,4R)-3-amino-4-fluoropiperidin-1-yl)-4-((6-amino-9H-purin-9-yl)methyl)pyridin-2-yl)-2-fluorobenzonitrile]
6 | 705 nM | 10 to 1000 nM | – | – | – | Nc1ncnc2c1ncn2Cc1cc(-c2ccc(F)cc2)ncc1N1CCC[C@](N)(COCC(F)(F)F)C1 [Example 45, (R)-9-((5-(3-amino-3-((2,2,2-trifluoroethoxy)methyl)piperidin-1-yl)-2-(4-fluorophenyl)pyridin-4-yl)methyl)-9H-purin-6-amine]
7 | 2950 nM | 10 to 1000 nM | – | – | – | COc1ccc(-c2cc(Cn3cnc4c(N)ncnc43)c(N3CCC[C@@](C)(N)C3)cn2)cc1F [Example 20, (R)-9-((5-(3-amino-3-methylpiperidin-1-yl)-2-(3-fluoro-4-methoxyphenyl)pyridin-4-yl)methyl)-9H-purin-6-amine]
8 | 1030 nM | 1 to 10 nM | – | – | – | COC[C@@]1(N)CCCN(c2cnc(-c3ccc(OC)cc3F)cc2Cn2cnc3c(N)ncnc32)C1 [Example 33, (R)-9-((5-(3-amino-3-(methoxymethyl)piperidin-1-yl)-2-(2-fluoro-4-methoxyphenyl)pyridin-4-yl)methyl)-9H-purin-6-amine]
9 | 225 nM | 1 to 10 nM | – | – | – | COC[C@@]1(N)CCCN(c2cnc(-c3ccc(F)cc3F)cc2Cn2cnc3c(N)ncnc32)C1 [Example 29, (R)-9-((5-(3-amino-3-(methoxymethyl)piperidin-1-yl)-2-(2,4-difluorophenyl)pyridin-4-yl)methyl)-9H-purin-6-amine]
10 | 118000 nM | 10 to 1000 nM | – | – | – | CNC(=O)CC1(N)CCCN(c2cnc(-c3cccc(F)c3)cc2Cn2cnc3c(N)ncnc32)C1 (centres unmarked) [Example 66, 2-(3-amino-1-(4-((6-amino-9H-purin-9-yl)methyl)-6-(3-fluorophenyl)pyridin-3-yl)piperidin-3-yl)-N-methylacetamide]
11 | 10000 nM | 10 to 1000 nM | – | – | – | COc1ccc(-c2cc(Cn3cnc4c(N)ncnc43)c(N3CCC[C@@H](N)C3)cn2)c(F)c1 [Example 6, (R)-9-((5-(3-aminopiperidin-1-yl)-2-(2-fluoro-4-methoxyphenyl)pyridin-4-yl)methyl)-9H-purin-6-amine]
12 | 18700 nM | 10 to 1000 nM | – | – | – | COc1ccc(-c2cc(Cn3cnc4c(N)ncnc43)c(N3CCC(OC)C(N)C3)cn2)cc1F (centres unmarked) [Example 15, 9-((5-(3-amino-4-methoxypiperidin-1-yl)-2-(3-fluoro-4-methoxyphenyl)pyridin-4-yl)methyl)-9H-purin-6-amine]
13 | 501 nM | 1 to 10 nM | – | – | – | COC[C@@]1(N)CCCN(c2cnc(-c3cccc(Cl)c3)cc2Cn2cnc3c(N)ncnc32)C1 [Example 27, (R)-9-((5-(3-amino-3-(methoxymethyl)piperidin-1-yl)-2-(3-chlorophenyl)pyridin-4-yl)methyl)-9H-purin-6-amine]
14 | – | – | 5370 nM | 10 to 1000 nM | – | COc1ccc(-c2cc(Cn3cnc4c(N)ncnc43)c(N3CCC[C@](N)(CC(F)(F)F)C3)cn2)cc1F [Example 303, (S)-9-((5-(3-amino-3-(2,2,2-trifluoroethyl)piperidin-1-yl)-2-(3-fluoro-4-methoxyphenyl)pyridin-4-yl)methyl)-9H-purin-6-amine]
15 | 9440 nM | 10 to 1000 nM | – | – | – | CN(C)C(=O)C[C@@]1(N)CCCN(c2cnc(-c3cccc(F)c3)cc2Cn2cnc3c(N)ncnc32)C1 [Example 70, (S)-2-(3-amino-1-(4-((6-amino-9H-purin-9-yl)methyl)-6-(3-fluorophenyl)pyridin-3-yl)piperidin-3-yl)-N,N-dimethylacetamide]
16 | 3900 nM | 10 to 1000 nM | – | – | – | COc1ccc(-c2cc(Cn3cnc4c(N)ncc(Cl)c43)c(N3CCC[C@@H](N)C3)cn2)cc1F [Example 19, (R)-1-((5-(3-aminopiperidin-1-yl)-2-(3-fluoro-4-methoxyphenyl)pyridin-4-yl)methyl)-7-chloro-1H-imidazo[4,5-c]pyridin-4-amine]
17 | 20800 nM | 10 to 1000 nM | – | – | – | COc1ccc(-c2cc(Cn3cnc4c(N)nccc43)c(N3CCC[C@@H](N)C3)cn2)cc1F [Example 21, (R)-1-((5-(3-aminopiperidin-1-yl)-2-(3-fluoro-4-methoxyphenyl)pyridin-4-yl)methyl)-1H-imidazo[4,5-c]pyridin-4-amine]
18 | 473 nM | 1 to 10 nM | – | – | – | COC(=O)[C@@]1(N)CCCN(c2cnc(-c3cccc(F)c3)cc2Cn2cnc3c(N)ncnc32)C1 [Example 79, methyl (R)-3-amino-1-(4-((6-amino-9H-purin-9-yl)methyl)-6-(3-fluorophenyl)pyridin-3-yl)piperidine-3-carboxylate]
19 | 451 nM | 1 to 10 nM | – | – | – | COC[C@@]1(N)CCCN(c2cnc(-c3cccc(F)c3)cc2Cn2cnc3c(N)ncnc32)C1 [Example 24, (R)-9-((5-(3-amino-3-(methoxymethyl)piperidin-1-yl)-2-(3-fluorophenyl)pyridin-4-yl)methyl)-9H-purin-6-amine]
20 | 5260 nM | 10 to 1000 nM | – | – | – | Nc1ncnc2c1ncn2Cc1cc(-c2cccc(F)c2)ncc1N1CC[C@@H](F)[C@@H](N)C1 [Example 8, 9-((5-((3S,4R)-3-amino-4-fluoropiperidin-1-yl)-2-(3-fluorophenyl)pyridin-4-yl)methyl)-9H-purin-6-amine]
21 | 770 nM | 10 to 1000 nM | – | – | – | Nc1ncnc2c1ncn2Cc1cc(-c2cccc(F)c2)ncc1N1CCC[C@](N)(COC(F)F)C1 [Example 40, (R)-9-((5-(3-amino-3-((difluoromethoxy)methyl)piperidin-1-yl)-2-(3-fluorophenyl)pyridin-4-yl)methyl)-9H-purin-6-amine]
22 | 9900 nM | 10 to 1000 nM | – | – | – | COC[C@@H]1[C@H](N)CCCN1c1cnc(-c2ccc(C#N)c(F)c2)cc1Cn1cnc2c(N)ncnc21 [Example 9]
23 | 115 nM | 1 to 10 nM | – | – | – | COc1ccc(-c2cc(Cn3cnc4c(N)ncnc43)c(N3CCC[C@](N)(C(=O)OC(C)C)C3)cn2)cc1F [Example 81, isopropyl (R)-3-amino-1-(4-((6-amino-9H-purin-9-yl)methyl)-6-(3-fluoro-4-methoxyphenyl)pyridin-3-yl)piperidine-3-carboxylate]
24 | 154000 nM | > 1000 nM | – | – | – | Nc1ncnc2c1ncn2Cc1cc(-c2cccc(F)c2)ncc1N1CCC(F)(F)C(N)C1 (centres unmarked) [Example 17, 9-((5-(3-amino-4,4-difluoropiperidin-1-yl)-2-(3-fluorophenyl)pyridin-4-yl)methyl)-9H-purin-6-amine]
25 | – | 1 to 10 nM | – | – | 315 nM | COC[C@@]1(N)CCCN(c2cnc(-c3ccc(OC)c(F)c3)cc2Cn2cnc3c(N)ncnc32)C1 [Example 46]
26 | 12200 nM | 10 to 1000 nM | – | – | – | Nc1ncnc2c1ncn2Cc1cc(-c2cccc(Cl)c2)ncc1N1CC[C@@H](F)[C@@H](N)C1 [Example 12, 9-((5-((3S,4R)-3-amino-4-fluoropiperidin-1-yl)-2-(3-chlorophenyl)pyridin-4-yl)methyl)-9H-purin-6-amine]
27 | 2560 nM | 10 to 1000 nM | – | – | – | COc1ccc(-c2cc(Cn3cnc4c(N)ncnc43)c(N3CCC[C@](N)(COCC(F)(F)F)C3)cn2)cc1F [Example 39, (R)-9-((5-(3-amino-3-((2,2,2-trifluoroethoxy)methyl)piperidin-1-yl)-2-(3-fluoro-4-methoxyphenyl)pyridin-4-yl)methyl)-9H-purin-6-amine]

Row | Structure (SMILES) | IC50 [1, 2] | IC50 (NSD2 [1-1365]; [3]) | IC50 ([1]; Homo sapiens, KMS-11, KMS11-Par line) | IC50 (NSD2 [1-1365]) | IC50 ([1]; KMS11-Par line, cellular H3K36me2 level)
28 | Nc1ncnc2c1ncn2Cc1cc(-c2cccc(F)c2)ncc1N1CCC[C@](N)(COC2CCC2)C1 [Example 35, (R)-9-((5-(3-amino-3-(cyclobutoxymethyl)piperidin-1-yl)-2-(3-fluorophenyl)pyridin-4-yl)methyl)-9H-purin-6-amine] | 610 nM | 1 to 10 nM | – | – | –
